# Measurements from patent US10538555B2, “Macrocyclic inhibitors of the PD-1/PD-L1 and CD80(B7-1)/PD-L1 protein/protein interactions” (BRISTOL-MYERS SQUIBB COMPANY, priority 2014, dated 2020).
# *1 amine or outer side, *2 acyl side, *3 side chain or, on linkers, in order; H or OH if unused. Where a SMILES comes first, the peptide text is derived from it. Bridges are numbered along the chain shown (N, C = ends). [ ]: non-standard residue; d: D form. ξ: configuration not given here. Trp(1-CH2COOH) = N[C@@H](Cc1cn(CC(=O)O)c2ccccc12)C(=O)O; Phe(3,4,5-F3) = N[C@@H](Cc1cc(F)c(F)c(F)c1)C(=O)O; Phe(3,4-F2) = N[C@@H](Cc1ccc(F)c(F)c1)C(=O)O; d(cisHyp) = O=C(O)[C@H]1C[C@@H](O)CN1; NMeY = CN[C@@H](Cc1ccc(O)cc1)C(=O)O; Hyp = O=C(O)[C@@H]1C[C@@H](O)CN1; NMeF = CN[C@@H](Cc1ccccc1)C(=O)O; X1 = O=C([C@H]1COCCN1[*:1])[*:2]; dNMeF = CN[C@H](Cc1ccccc1)C(=O)O; dHyp = O=C(O)[C@H]1C[C@H](O)CN1; NMehSer = CN[C@@H](CCO)C(=O)O; NMeNle = CCCC[C@H](NC)C(=O)O; dPip = O=C(O)[C@H]1CCCCN1; hSer = N[C@@H](CCO)C(=O)O; NMeA = CN[C@@H](C)C(=O)O; Orn = NCCC[C@H](N)C(=O)O; Dab = NCC[C@H](N)C(=O)O; Dap = NC[C@H](N)C(=O)O; ξC = NC(CS)C(=O)O; Sar = CNCC(=O)O
# Target: T1, Human PD-L1/PD-1 (Homo sapiens, UniProt Q9NZQ7)
# T1 construct: TVMV protease cleavage site (C); made in house; host or cells: HEK293T cells
# T1 sequence (Q9NZQ7 with tags, fused parts or gaps): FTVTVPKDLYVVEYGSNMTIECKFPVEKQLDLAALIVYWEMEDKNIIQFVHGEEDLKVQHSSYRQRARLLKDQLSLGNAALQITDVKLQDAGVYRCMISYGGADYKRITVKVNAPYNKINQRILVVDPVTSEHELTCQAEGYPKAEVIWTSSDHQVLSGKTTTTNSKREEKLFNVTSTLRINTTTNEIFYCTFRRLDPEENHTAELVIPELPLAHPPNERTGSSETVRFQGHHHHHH
# Test: HTRF Human PD-L1/PD-1 binding assay (PD-1-Ig/PD-L1-His)
# Details: PD-L1-His 10 nM, PD-1-Ig 20 nM; class symbol; read-out: HTRF Human PD-L1/PD-1 Binding Assay IC50 Range
# Outline: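 Soluble HEK293T-expressed proteins: hPD-L1-His 10 nM, hPD-1-Ig 20 nM final. Cpd + PD-L1 15 min, + PD-1 15 min, + Eu anti-Ig 1 nM/APC anti-His 20 nM 30 min. Buffer dPBS, 0.1% BSA, 0.05% Tween-20. TR-FRET 665/620.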
row,Compound,IC50 [nM]
1,CCCC[C@H]1C(=O)N(C)[C@@H](CCCC)C(=O)N[C@@H](CCC(=O)O)C(=O)N[C@H](C(=O)NCC(N)=O)CSCC(=O)N[C@@H](Cc2ccc(O)cc2)C(=O)N(C)[C@@H](C)C(=O)N[C@@H](CC(=O)O)C(=O)N2CCC[C@H]2C(=O)N[C@@H](CO)C(=O)N[C@@H](CCC(N)=O)C(=O)N2C[C@H](O)C[C@H]2C(=O)N[C@@H](Cc2c[nH]c3ccccc23)C(=O)N[C@@H](CCC(=O)O)C(=O)N[C@@H](Cc2c[nH]c3ccccc23)C(=O)N1C [Example 5177] ({CH2CO}-Y[NMeA]DPSQ[Hyp]WEW[NMeNle][NMeNle]ECG-NH2; thioether N-14),10 to 99.9
2,"COCC[C@H]1C(=O)N2C[C@@H](O)C[C@@H]2C(=O)N[C@@H](CC(=O)O)C(=O)N[C@@H](C(C)C)C(=O)N(C)[C@H](Cc2ccccc2)C(=O)N[C@@H](Cc2ccc(OC)cc2)C(=O)N2C[C@@H](O)C[C@@H]2C(=O)N[C@@H](Cc2c[nH]c3ccccc23)C(=O)N[C@@H](Cc2ccc(O)cc2)C(=O)N[C@@H](CC(C)C)C(=O)N[C@H](C(=O)NCC(N)=O)CSCC(=O)N[C@@H](Cc2ccc(F)c(F)c2)C(=O)N(C)[C@@H](Cc2ccccc2)C(=O)N1C [Example 9236] ({CH2CO}-[Phe(3,4-F2)][NMeF][NMehSer](Me)[dHyp]DV[dNMeF]Y(Me)[dHyp]WYLCG-NH2; thioether N-13)",1 to 9.9
3,CCCC[C@H]1C(=O)N(C)[C@@H](CCCC)C(=O)N[C@@H](CCC(=O)O)C(=O)N[C@H](C(=O)NCC(N)=O)CSCC(=O)N[C@@H](Cc2ccc(OC)cc2)C(=O)N(C)[C@@H](C)C(=O)N[C@@H](CCN)C(=O)N2CCC[C@H]2C(=O)N[C@@H](Cc2cnc[nH]2)C(=O)N[C@@H](CCC(=O)O)C(=O)N2C[C@H](O)C[C@H]2C(=O)N[C@@H](Cc2c[nH]c3ccccc23)C(=O)N[C@@H](CCN)C(=O)N[C@@H](Cc2c[nH]c3ccccc23)C(=O)N1C [Example 7111] ({CH2CO}-Y(Me)[NMeA][Dab]PHE[Hyp]W[Dab]W[NMeNle][NMeNle]ECG-NH2; thioether N-14),1 to 9.9
4,CCCC[C@H]1C(=O)N(C)[C@@H](CCCC)C(=O)N[C@@H](CC(C)C)C(=O)N[C@H](C(=O)NCC(N)=O)CSCC(=O)N[C@@H](Cc2ccc(O)cc2)C(=O)N2CCCC[C@@H]2C(=O)N[C@@H](CC(=O)O)C(=O)N2CCC[C@H]2C(=O)N[C@@H](Cc2cnc[nH]2)C(=O)N[C@@H](CCCCN)C(=O)N2C[C@H](O)C[C@H]2C(=O)N[C@@H](Cc2c[nH]c3ccccc23)C(=O)N[C@@H](CCCCN)C(=O)N[C@@H](Cc2cn(CC(=O)O)c3ccccc23)C(=O)N1C [Example 1296] ({CH2CO}-Y[dPip]DPHK[Hyp]WK[Trp(1-CH2COOH)][NMeNle][NMeNle]LCG-NH2; thioether N-14),1 to 9.9
5,CCCC[C@H]1C(=O)N(C)[C@@H](CCCC)C(=O)NCC(=O)N[C@H](C(=O)NCC(N)=O)CSCC(=O)N[C@@H](Cc2ccc(O)cc2)C(=O)N(C)[C@@H](C)C(=O)N[C@@H](CC(N)=O)C(=O)N2CCC[C@H]2C(=O)NCC(=O)N[C@@H](CCC(N)=O)C(=O)N2C[C@H](O)C[C@H]2C(=O)N[C@@H](Cc2c[nH]c3ccccc23)C(=O)N[C@@H](CO)C(=O)N[C@@H](Cc2c[nH]c3ccccc23)C(=O)N1C [Example 5175] ({CH2CO}-Y[NMeA]NPGQ[Hyp]WSW[NMeNle][NMeNle]GCG-NH2; thioether N-14),1 to 9.9
6,CCCC[C@H]1C(=O)N(C)[C@@H](CCCC)C(=O)N[C@@H](CCCN)C(=O)N[C@H](C(=O)NCC(N)=O)CSCC(=O)N[C@@H](Cc2ccc(OC)cc2)C(=O)N(C)[C@@H](C)C(=O)N[C@@H](CC(N)=O)C(=O)N2CCC[C@H]2C(=O)N[C@@H](CN)C(=O)N[C@@H](CCC(=O)O)C(=O)N2C[C@H](O)C[C@H]2C(=O)N[C@@H](Cc2c[nH]c3ccccc23)C(=O)N[C@@H](CC(=O)O)C(=O)N[C@@H](Cc2c[nH]c3ccccc23)C(=O)N1C [Example 7100] ({CH2CO}-Y(Me)[NMeA]NP[Dap]E[Hyp]WDW[NMeNle][NMeNle][Orn]CG-NH2; thioether N-14),1 to 9.9
7,"CCCC[C@H]1C(=O)N2C[C@H](O)C[C@@H]2C(=O)N[C@@H](CC(=O)O)C(=O)N[C@@H](C(C)C)C(=O)N(C)[C@@H](Cc2ccccc2)C(=O)N[C@@H](Cc2ccc(OC)cc2)C(=O)N2CCOC[C@@H]2C(=O)N[C@@H](Cc2c[nH]c3ccccc23)C(=O)N[C@@H](Cc2ccc(O)cc2)C(=O)N[C@@H](CCOC)C(=O)N[C@H](C(=O)NCC(N)=O)CSCC(=O)N[C@@H](Cc2cc(F)c(F)c(F)c2)C(=O)N(C)[C@@H](Cc2ccccc2)C(=O)N1C [Example 10180] ({CH2CO}-[Phe(3,4,5-F3)][NMeF][NMeNle][d(cisHyp)]DV[NMeF]Y(Me)[X1]WY[hSer](Me)CG-NH2; thioether N-13)",10 to 99.9
8,CCCC[C@H]1C(=O)N(C)[C@@H](CCCC)C(=O)N[C@@H](CCN)C(=O)NC(C(=O)NCC(N)=O)CSCC(=O)N[C@@H](Cc2ccc(O)cc2)C(=O)N(C)[C@@H](C)C(=O)N[C@@H](CC(N)=O)C(=O)N2CCC[C@H]2C(=O)N[C@@H](CC(N)=O)C(=O)N[C@@H](CC(C)C)C(=O)N2C[C@H](O)C[C@H]2C(=O)N[C@@H](Cc2c[nH]c3ccccc23)C(=O)N[C@@H](CO)C(=O)N[C@@H](Cc2c[nH]c3ccccc23)C(=O)N1C (stereo partly drawn) [Example 9164] ({CH2CO}-Y[NMeA]NPNL[Hyp]WSW[NMeNle][NMeNle][Dab][ξC]G-NH2; thioether N-14),1 to 9.9
9,"CCCC[C@H]1C(=O)N2C[C@H](O)C[C@@H]2C(=O)N[C@@H](CC(=O)O)C(=O)N[C@@H](C(C)C)C(=O)N(C)[C@@H](Cc2ccccc2)C(=O)N[C@@H](Cc2ccc(O)cc2)C(=O)N2CCOC[C@@H]2C(=O)N[C@@H](Cc2c[nH]c3ccccc23)C(=O)N[C@@H](Cc2ccc(O)cc2)C(=O)N[C@@H](CCO)C(=O)N[C@H](C(=O)NCC(N)=O)CSCC(=O)N[C@@H](Cc2cc(F)c(F)c(F)c2)C(=O)N(C)[C@@H](Cc2ccccc2)C(=O)N1C [Example 10159] ({CH2CO}-[Phe(3,4,5-F3)][NMeF][NMeNle][d(cisHyp)]DV[NMeF]Y[X1]WY[hSer]CG-NH2; thioether N-13)",1 to 9.9

# Continued, values first:
row,IC50 [nM],Compound
1,1000 to 10000,CCCC[C@H]1C(=O)N[C@@H](CC(N)=O)C(=O)N2CCC[C@H]2C(=O)N[C@@H](CO)C(=O)N[C@@H](CCO)C(=O)N2CCC[C@H]2C(=O)N[C@@H](Cc2c[nH]c3ccccc23)C(=O)N[C@@H](CCO)C(=O)N[C@@H](Cc2c[nH]c3ccccc23)C(=O)N(C)[C@@H](C)C(=O)N(C)[C@@H](C)C(=O)N[C@@H](CCCN)C(=O)NC(C(=O)NCC(N)=O)CSCC(=O)N[C@@H](Cc2ccc(O)cc2)C(=O)N1C (stereo partly drawn) [Example 10216] ({CH2CO}-Y[NMeNle]NPS[hSer]PW[hSer]W[NMeA][NMeA][Orn][ξC]G-NH2; thioether N-14)
2,1 to 9.9,"CCCC[C@H]1C(=O)N2CCC[C@@H]2C(=O)N[C@@H](CC(=O)O)C(=O)N[C@@H](C(C)C)C(=O)N(C)[C@@H](Cc2ccccc2)C(=O)N[C@@H](CCC(=O)O)C(=O)N2CCOC[C@@H]2C(=O)N[C@@H](Cc2c[nH]c3ccccc23)C(=O)N[C@@H](Cc2ccc(O)cc2)C(=O)N[C@@H](CC(C)C)C(=O)N[C@H](C(=O)NCC(N)=O)CSCC(=O)N[C@@H](Cc2cc(F)c(F)c(F)c2)C(=O)N(C)[C@@H](Cc2ccc(O)cc2)C(=O)N1C [Example 10599] ({CH2CO}-[Phe(3,4,5-F3)][NMeY][NMeNle][dP]DV[NMeF]E[X1]WYLCG-NH2; thioether N-13)"
3,1 to 9.9,"CCCC[C@H]1C(=O)N2CCC[C@@H]2C(=O)N[C@@H](CC(=O)O)C(=O)N[C@@H](C(C)C)C(=O)N(C)[C@@H](Cc2ccccc2)C(=O)N[C@@H](CCC(=O)O)C(=O)N2CCCC[C@@H]2C(=O)N[C@@H](Cc2c[nH]c3ccccc23)C(=O)N[C@@H](Cc2ccc(O)cc2)C(=O)N[C@@H](CCN)C(=O)N[C@H](C(=O)NCC(N)=O)CSCC(=O)N[C@@H](Cc2cc(F)c(F)c(F)c2)C(=O)N(C)[C@@H](Cc2ccc(OC)cc2)C(=O)N1C [Example 10603] ({CH2CO}-[Phe(3,4,5-F3)][NMeY](Me)[NMeNle][dP]DV[NMeF]E[dPip]WY[Dab]CG-NH2; thioether N-13)"
4,1000 to 10000,CCCC[C@H]1C(=O)N[C@@H](CC(N)=O)C(=O)N2CCC[C@H]2C(=O)N[C@@H](CO)C(=O)N[C@@H](CCO)C(=O)N2CCC[C@H]2C(=O)N[C@@H](Cc2c[nH]c3ccccc23)C(=O)N[C@@H](CCO)C(=O)N[C@@H](Cc2c[nH]c3ccccc23)C(=O)N(C)[C@@H](C)C(=O)N(C)[C@@H](C)C(=O)N[C@@H](CCCCN)C(=O)NC(C(=O)NCC(N)=O)CSCC(=O)N[C@@H](Cc2ccc(O)cc2)C(=O)N1C (stereo partly drawn) [Example 10214] ({CH2CO}-Y[NMeNle]NPS[hSer]PW[hSer]W[NMeA][NMeA]K[ξC]G-NH2; thioether N-14)
5,10 to 99.9,"CCCC[C@H]1C(=O)N2C[C@H](O)C[C@@H]2C(=O)N[C@@H](CC(=O)O)C(=O)N[C@@H](C(C)C)C(=O)N(C)[C@@H](Cc2ccccc2)C(=O)N[C@@H](CCC(=O)O)C(=O)N2C[C@H](O)C[C@@H]2C(=O)N[C@@H](Cc2c[nH]c3ccccc23)C(=O)N[C@@H](Cc2ccc(O)cc2)C(=O)N[C@@H](CCC(=O)O)C(=O)N[C@H](C(=O)NCC(N)=O)CSCC(=O)N[C@@H](Cc2cc(F)c(F)c(F)c2)C(=O)N(C)[C@@H](Cc2ccc(O)cc2)C(=O)N1C [Example 10637] ({CH2CO}-[Phe(3,4,5-F3)][NMeY][NMeNle][d(cisHyp)]DV[NMeF]E[d(cisHyp)]WYECG-NH2; thioether N-13)"
6,1000 to 10000,CCCC[C@H]1C(=O)N[C@@H](CC(N)=O)C(=O)N2CCC[C@H]2C(=O)N[C@@H](CO)C(=O)N[C@@H](CCO)C(=O)N2C[C@H](O)C[C@H]2C(=O)N[C@@H](Cc2c[nH]c3ccccc23)C(=O)N[C@@H](CCN)C(=O)N[C@@H](Cc2c[nH]c3ccccc23)C(=O)N(C)[C@@H](C)C(=O)N(C)CC(=O)N[C@@H](CCCNC(=N)N)C(=O)NC(C(=O)NCC(N)=O)CSCC(=O)N[C@@H](Cc2ccc(O)cc2)C(=O)N1C (stereo partly drawn) [Example 10206] ({CH2CO}-Y[NMeNle]NPS[hSer][Hyp]W[Dab]W[NMeA][Sar]R[ξC]G-NH2; thioether N-14)
